Source: ChEMBL document CHEMBL5291721, “A preclinical secondary pharmacology resource illuminates target-adverse drug reaction associations of marketed drugs” (Nat Commun, 2023)

What was measured:
[1] = biological target: T1, Alpha-2A adrenergic receptor (Homo sapiens, UniProt P08913)
T1 sequence (P08913 whole entry): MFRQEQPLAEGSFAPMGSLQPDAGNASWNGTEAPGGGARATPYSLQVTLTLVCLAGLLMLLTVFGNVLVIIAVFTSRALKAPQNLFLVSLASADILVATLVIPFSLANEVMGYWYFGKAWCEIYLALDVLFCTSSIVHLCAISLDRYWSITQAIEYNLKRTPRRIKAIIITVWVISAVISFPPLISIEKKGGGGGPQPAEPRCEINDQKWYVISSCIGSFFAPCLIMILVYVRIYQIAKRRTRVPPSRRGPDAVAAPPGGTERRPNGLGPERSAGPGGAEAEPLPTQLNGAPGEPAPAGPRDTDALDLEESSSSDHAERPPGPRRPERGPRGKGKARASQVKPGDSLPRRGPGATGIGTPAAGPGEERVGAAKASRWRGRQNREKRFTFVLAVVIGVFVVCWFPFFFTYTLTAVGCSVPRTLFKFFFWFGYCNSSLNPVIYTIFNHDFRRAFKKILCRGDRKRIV

[2] = biological target: T2, Prostaglandin G/H synthase 1 (Homo sapiens, UniProt P23219); format: functional
Bile salt export pump = Bile salt export pump (Homo sapiens, UniProt O95342); format: functional
[3] = biological target: 5-hydroxytryptamine receptor 2B (Homo sapiens, UniProt P41595); format: functional, cell-based
D(3) dopamine receptor = D(3) dopamine receptor (Homo sapiens, UniProt P35462)
[4] = biological target: T2, Prostaglandin G/H synthase 1; format: functional; remark: listed apart in the source
[5] = biological target: T3, Muscarinic acetylcholine receptor M2 (Homo sapiens, UniProt P08172)
T3 sequence (P08172 whole entry): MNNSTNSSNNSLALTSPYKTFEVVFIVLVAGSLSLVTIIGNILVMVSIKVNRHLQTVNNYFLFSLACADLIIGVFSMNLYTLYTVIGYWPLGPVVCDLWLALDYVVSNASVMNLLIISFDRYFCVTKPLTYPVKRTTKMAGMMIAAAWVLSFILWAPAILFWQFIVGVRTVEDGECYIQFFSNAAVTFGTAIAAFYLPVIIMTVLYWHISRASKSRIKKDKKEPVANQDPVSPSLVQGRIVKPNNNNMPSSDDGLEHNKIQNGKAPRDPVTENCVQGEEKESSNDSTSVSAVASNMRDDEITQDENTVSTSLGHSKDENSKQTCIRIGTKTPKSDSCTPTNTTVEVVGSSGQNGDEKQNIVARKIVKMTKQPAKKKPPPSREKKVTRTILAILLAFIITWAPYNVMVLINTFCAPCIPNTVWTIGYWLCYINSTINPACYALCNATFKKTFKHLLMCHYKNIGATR

Thromboxane A2 receptor [6] = biological target: T4, Thromboxane A2 receptor (Homo sapiens, UniProt P21731); format: functional, cell-based
T4 sequence (P21731 whole entry): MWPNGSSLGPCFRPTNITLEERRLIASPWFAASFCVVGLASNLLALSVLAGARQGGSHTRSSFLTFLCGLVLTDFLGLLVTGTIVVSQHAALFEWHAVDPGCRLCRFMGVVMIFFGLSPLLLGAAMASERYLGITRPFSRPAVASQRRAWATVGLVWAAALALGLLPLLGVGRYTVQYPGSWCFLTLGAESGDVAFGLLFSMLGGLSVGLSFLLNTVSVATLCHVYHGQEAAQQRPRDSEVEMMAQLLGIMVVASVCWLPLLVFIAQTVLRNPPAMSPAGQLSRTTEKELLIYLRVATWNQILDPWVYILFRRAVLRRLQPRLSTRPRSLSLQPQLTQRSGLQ

Thromboxane A2 receptor [7] = biological target: T4, Thromboxane A2 receptor; format: functional, cell-based; remark: listed apart in the source
[8] = biological target: 3',5'-cyclic-AMP phosphodiesterase 4A (Homo sapiens, UniProt P27815); format: functional
[9] = biological target: Sodium-dependent dopamine transporter (Homo sapiens, UniProt Q01959)
Prothrombin = Prothrombin (Homo sapiens, UniProt P00734); format: functional
[10] = biological target: Voltage-gated inwardly rectifying potassium channel KCNH2 (Homo sapiens, UniProt Q12809); format: functional
Acetylcholinesterase = Acetylcholinesterase (Homo sapiens, UniProt P22303); format: functional
Histamine H3 receptor = Histamine H3 receptor (Homo sapiens, UniProt Q9Y5N1)
[11] = biological target: T5, Amine oxidase [flavin-containing] A (Homo sapiens, UniProt P21397); format: functional
T5 sequence (P21397 whole entry): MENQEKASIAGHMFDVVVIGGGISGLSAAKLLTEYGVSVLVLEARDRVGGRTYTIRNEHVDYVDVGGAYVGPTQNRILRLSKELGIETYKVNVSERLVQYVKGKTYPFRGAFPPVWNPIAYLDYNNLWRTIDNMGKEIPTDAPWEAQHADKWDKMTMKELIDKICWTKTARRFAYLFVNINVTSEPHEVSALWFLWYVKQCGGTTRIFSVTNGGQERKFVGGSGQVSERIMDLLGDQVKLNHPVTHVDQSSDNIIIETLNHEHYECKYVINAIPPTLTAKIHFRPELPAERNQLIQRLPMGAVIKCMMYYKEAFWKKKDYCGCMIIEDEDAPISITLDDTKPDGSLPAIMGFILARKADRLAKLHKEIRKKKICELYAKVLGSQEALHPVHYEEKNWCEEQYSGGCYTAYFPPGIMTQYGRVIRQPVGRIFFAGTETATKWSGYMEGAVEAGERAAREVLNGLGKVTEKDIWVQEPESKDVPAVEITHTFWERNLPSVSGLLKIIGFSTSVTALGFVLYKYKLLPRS
Also: assay procedure not described here.

5-hydroxytryptamine receptor 2B, sequence (P41595 whole entry): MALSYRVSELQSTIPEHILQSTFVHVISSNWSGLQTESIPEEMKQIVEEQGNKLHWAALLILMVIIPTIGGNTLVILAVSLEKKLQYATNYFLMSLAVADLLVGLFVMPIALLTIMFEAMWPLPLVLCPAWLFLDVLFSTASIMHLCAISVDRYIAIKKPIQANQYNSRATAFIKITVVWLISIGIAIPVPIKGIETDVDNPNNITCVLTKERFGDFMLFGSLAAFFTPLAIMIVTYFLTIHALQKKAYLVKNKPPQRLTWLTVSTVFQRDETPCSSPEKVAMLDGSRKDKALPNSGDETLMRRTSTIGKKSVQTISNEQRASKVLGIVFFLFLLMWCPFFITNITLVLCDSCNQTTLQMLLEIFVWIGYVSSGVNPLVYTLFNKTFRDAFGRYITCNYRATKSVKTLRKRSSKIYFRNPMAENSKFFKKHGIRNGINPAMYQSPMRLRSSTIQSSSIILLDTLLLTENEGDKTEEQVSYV
Voltage-gated inwardly rectifying potassium channel KCNH2, sequence (Q12809 whole entry): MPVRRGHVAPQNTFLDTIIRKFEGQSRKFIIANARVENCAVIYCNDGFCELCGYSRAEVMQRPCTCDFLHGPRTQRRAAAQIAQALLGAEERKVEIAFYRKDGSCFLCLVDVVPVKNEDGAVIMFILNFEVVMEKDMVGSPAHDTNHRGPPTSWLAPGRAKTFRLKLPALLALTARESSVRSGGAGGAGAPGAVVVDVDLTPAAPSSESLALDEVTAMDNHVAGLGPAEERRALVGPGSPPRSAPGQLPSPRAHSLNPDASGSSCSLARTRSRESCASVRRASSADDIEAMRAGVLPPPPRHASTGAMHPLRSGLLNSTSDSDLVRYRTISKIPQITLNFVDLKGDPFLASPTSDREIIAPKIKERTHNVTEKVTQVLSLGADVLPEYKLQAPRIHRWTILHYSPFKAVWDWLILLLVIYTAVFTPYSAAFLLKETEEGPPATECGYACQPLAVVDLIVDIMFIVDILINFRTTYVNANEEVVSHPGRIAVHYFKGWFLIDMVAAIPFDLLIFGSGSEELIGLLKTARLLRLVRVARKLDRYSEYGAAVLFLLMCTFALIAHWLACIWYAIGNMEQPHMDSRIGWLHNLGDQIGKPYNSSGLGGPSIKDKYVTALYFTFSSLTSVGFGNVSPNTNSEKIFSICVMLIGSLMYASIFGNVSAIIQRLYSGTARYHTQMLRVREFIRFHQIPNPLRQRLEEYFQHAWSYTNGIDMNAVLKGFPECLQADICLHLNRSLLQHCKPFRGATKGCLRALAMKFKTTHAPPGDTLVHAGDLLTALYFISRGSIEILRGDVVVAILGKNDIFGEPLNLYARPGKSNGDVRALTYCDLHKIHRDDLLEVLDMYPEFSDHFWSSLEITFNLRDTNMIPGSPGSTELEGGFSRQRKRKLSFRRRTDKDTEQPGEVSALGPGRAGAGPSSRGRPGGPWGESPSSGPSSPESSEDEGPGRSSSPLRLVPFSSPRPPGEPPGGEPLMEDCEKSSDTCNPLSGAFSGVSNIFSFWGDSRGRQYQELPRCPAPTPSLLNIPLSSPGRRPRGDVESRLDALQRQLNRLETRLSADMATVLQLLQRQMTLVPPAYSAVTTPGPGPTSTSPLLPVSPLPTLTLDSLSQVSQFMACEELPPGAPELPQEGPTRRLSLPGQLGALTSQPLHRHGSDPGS
T2 sequence (P23219 whole entry): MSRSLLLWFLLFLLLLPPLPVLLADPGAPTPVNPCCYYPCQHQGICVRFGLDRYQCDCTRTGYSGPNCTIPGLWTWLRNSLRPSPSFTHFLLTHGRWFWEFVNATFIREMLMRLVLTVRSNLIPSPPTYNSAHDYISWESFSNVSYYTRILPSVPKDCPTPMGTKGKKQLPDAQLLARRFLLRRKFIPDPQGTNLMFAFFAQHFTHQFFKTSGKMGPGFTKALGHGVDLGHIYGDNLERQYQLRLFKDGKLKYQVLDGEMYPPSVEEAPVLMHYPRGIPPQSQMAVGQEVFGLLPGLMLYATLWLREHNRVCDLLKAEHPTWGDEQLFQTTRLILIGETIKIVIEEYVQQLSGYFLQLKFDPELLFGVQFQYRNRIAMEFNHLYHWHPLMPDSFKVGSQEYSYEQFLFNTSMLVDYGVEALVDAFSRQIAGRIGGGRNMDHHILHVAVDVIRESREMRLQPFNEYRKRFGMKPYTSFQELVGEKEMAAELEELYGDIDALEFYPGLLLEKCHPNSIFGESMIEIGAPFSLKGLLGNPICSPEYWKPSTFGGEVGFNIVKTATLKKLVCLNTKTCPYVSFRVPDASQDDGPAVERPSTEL
Sodium-dependent dopamine transporter, sequence (Q01959 whole entry): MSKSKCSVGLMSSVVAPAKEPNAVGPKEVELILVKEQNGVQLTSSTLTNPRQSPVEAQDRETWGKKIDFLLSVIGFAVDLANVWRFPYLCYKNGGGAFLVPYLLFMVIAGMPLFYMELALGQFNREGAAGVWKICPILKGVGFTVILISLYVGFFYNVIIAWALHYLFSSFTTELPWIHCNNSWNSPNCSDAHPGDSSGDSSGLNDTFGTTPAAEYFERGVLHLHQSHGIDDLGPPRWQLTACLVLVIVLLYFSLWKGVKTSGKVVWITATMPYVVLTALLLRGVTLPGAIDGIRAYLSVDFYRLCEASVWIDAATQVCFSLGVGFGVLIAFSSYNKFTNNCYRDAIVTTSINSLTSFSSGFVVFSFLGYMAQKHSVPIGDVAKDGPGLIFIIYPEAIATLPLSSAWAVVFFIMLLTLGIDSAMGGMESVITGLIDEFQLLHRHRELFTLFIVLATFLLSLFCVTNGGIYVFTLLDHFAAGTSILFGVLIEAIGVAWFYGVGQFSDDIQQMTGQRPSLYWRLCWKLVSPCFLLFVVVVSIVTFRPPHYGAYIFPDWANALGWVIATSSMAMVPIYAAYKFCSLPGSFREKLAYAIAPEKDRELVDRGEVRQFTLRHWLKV
D(3) dopamine receptor, sequence (P35462 whole entry): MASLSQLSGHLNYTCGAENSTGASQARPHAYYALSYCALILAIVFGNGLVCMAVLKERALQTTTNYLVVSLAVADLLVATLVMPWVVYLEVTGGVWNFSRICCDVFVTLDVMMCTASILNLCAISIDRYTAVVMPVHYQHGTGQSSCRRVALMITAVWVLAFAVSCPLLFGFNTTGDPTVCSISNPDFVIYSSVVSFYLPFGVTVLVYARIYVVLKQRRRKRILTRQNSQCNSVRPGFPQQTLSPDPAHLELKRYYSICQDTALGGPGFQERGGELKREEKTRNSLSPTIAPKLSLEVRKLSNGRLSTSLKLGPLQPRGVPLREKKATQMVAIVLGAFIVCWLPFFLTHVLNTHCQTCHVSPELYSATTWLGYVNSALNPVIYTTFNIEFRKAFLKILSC
Bile salt export pump, sequence (O95342 whole entry): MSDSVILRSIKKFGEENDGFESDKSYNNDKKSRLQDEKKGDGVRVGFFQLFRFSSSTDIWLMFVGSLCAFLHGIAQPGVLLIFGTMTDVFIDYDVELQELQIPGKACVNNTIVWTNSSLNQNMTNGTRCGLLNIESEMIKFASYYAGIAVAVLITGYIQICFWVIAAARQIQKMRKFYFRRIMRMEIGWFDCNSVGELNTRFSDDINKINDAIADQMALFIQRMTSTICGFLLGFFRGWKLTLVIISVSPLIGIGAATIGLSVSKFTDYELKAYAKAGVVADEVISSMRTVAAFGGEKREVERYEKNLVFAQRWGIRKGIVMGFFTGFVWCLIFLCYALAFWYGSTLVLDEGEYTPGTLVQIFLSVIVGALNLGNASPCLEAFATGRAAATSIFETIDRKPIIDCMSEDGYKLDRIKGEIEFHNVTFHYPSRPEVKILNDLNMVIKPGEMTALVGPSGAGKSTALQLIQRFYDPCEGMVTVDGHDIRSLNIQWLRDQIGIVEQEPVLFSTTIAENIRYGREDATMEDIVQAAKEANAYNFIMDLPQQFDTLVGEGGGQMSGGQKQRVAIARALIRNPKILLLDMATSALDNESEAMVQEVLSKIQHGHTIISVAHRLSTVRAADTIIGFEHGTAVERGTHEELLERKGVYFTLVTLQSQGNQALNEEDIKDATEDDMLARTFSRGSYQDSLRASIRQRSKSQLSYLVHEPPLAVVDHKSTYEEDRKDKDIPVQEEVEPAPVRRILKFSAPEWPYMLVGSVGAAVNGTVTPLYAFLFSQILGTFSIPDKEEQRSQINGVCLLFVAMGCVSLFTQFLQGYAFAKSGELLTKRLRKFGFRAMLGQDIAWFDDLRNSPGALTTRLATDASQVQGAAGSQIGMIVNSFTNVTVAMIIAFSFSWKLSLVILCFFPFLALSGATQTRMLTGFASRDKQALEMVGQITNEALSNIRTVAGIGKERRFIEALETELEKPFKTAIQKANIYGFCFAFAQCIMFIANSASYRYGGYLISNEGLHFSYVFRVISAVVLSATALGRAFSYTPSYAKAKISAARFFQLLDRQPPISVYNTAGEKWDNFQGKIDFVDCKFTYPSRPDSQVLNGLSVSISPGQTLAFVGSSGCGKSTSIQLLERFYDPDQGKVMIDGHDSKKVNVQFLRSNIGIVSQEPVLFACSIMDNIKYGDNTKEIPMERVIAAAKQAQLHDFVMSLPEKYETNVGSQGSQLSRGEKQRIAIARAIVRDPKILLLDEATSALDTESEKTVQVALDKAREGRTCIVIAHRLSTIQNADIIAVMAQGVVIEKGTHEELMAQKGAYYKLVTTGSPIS
Histamine H3 receptor, sequence (Q9Y5N1 whole entry): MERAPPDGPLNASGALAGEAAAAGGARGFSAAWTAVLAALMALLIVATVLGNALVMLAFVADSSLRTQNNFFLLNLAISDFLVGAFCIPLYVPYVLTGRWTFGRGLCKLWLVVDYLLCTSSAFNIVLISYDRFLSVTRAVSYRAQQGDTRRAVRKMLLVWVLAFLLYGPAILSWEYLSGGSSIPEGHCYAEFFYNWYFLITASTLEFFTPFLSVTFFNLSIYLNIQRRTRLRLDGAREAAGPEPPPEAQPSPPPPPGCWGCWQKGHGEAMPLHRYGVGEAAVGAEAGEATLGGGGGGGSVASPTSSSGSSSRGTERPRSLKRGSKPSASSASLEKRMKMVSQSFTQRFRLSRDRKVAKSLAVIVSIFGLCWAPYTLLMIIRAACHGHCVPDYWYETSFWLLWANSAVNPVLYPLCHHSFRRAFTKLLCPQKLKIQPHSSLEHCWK

| SMILES | AC50 [1] | AC50 [2] | AC50 (Bile salt export pump) | AC50 [3] | AC50 (D(3) dopamine receptor) | AC50 [4] | AC50 [5] | AC50 (Thromboxane A2 receptor [6]) | AC50 (Thromboxane A2 receptor [7]) | AC50 [8] | AC50 [9] | AC50 (Prothrombin) | AC50 [10] | AC50 (Acetylcholinesterase) | AC50 (Histamine H3 receptor) | AC50 [11] |
| --- | --- | --- | --- | --- | --- | --- | --- | --- | --- | --- | --- | --- | --- | --- | --- | --- |
| O=C(O)c1cc(/N=N/c2ccc(O)c(C(=O)O)c2)ccc1O [OLSALAZINE] | > 30 µM | > 30 µM | > 300 µM | > 30 µM | > 30 µM | > 30 µM | > 30 µM | > 30 µM | > 30 µM | 13.2 µM | > 30 µM | > 30 µM | > 30 µM | > 30 µM | > 30 µM | > 30 µM |
| OC[C@@H](O)[C@@H](O)[C@H](O)[C@@H](O)CO [SORBITOL] | > 30 µM | > 30 µM | > 300 µM | > 30 µM | > 30 µM | > 30 µM | > 30 µM | > 30 µM | > 30 µM | > 30 µM | > 30 µM | > 30 µM | > 30 µM | > 30 µM | > 30 µM | > 30 µM |
| Cc1onc(-c2ccccc2)c1C(=O)N[C@@H]1C(=O)N2[C@@H]1SC(C)(C)[C@@H]2C(=O)O [OXACILLIN] | > 30 µM | > 30 µM | 220 µM | > 30 µM | > 30 µM | > 30 µM | > 30 µM | > 30 µM | > 30 µM | > 30 µM | > 30 µM | > 30 µM | > 30 µM | > 30 µM | > 30 µM | > 30 µM |
| CCCN(CCC)C(=O)Cc1c(-c2ccc(Cl)cc2)nc2ccc(Cl)cn12 [ALPIDEM] | > 30 µM | > 30 µM | 4.8 µM | > 30 µM | 27.8 µM | > 30 µM | > 30 µM | > 10 µM | > 30 µM | > 30 µM | > 30 µM | > 30 µM | 14.8 µM | > 30 µM | > 30 µM | > 30 µM |
| COc1cc2nccc(Oc3ccc(NC(=O)C4(C(=O)Nc5ccc(F)cc5)CC4)cc3)c2cc1OC [CABOZANTINIB] | > 30 µM | > 30 µM | 8.8 µM | > 30 µM | > 30 µM | > 30 µM | 9.32 µM | 17.5 µM | > 30 µM | > 30 µM | > 30 µM | > 30 µM | 8.3 µM | > 30 µM | > 30 µM | 25.4 µM |
| C[N+](C)(C)C[C@H](O)CC(=O)[O-] [LEVOCARNITINE] | > 30 µM | > 30 µM | > 300 µM | > 30 µM | > 30 µM | > 30 µM | > 30 µM | > 30 µM | > 30 µM | > 30 µM | > 30 µM | > 30 µM | > 30 µM | > 30 µM | > 30 µM | > 30 µM |
| CC(C)(O)CNc1nc(Nc2ccnc(C(F)(F)F)c2)nc(-c2cccc(C(F)(F)F)n2)n1 [ENASIDENIB] | > 30 µM | 14.1 µM | 5.3 µM | > 30 µM | > 30 µM | 9.18 µM | > 30 µM | 7.09 µM | > 30 µM | > 30 µM | > 30 µM | > 30 µM | > 30 µM | > 30 µM | > 30 µM | > 30 µM |
| CCOC(=O)C1=C[C@@H](OC(CC)CC)[C@H](NC(C)=O)[C@@H](N)C1 [OSELTAMIVIR] | > 30 µM | > 30 µM | > 300 µM | > 30 µM | > 30 µM | > 30 µM | > 30 µM | > 30 µM | > 30 µM | > 30 µM | > 30 µM | > 30 µM | > 30 µM | > 30 µM | > 30 µM | > 30 µM |
| OC[C@H]1O[C@@H](c2ccc(Cl)c(Cc3ccc(O[C@H]4CCOC4)cc3)c2)[C@H](O)[C@@H](O)[C@@H]1O [EMPAGLIFLOZIN] | > 30 µM | > 30 µM | > 300 µM | > 30 µM | > 30 µM | > 30 µM | > 30 µM | > 30 µM | > 30 µM | > 30 µM | > 30 µM | > 30 µM | > 30 µM | > 30 µM | > 30 µM | > 30 µM |
| Cc1ccccc1C(=O)Nc1ccc(C(=O)N2CCCC(N(C)C)c3ccccc32)cc1 (stereo unspecified) [MOZAVAPTAN] | > 30 µM | > 30 µM | 14 µM | > 30 µM | > 30 µM | > 30 µM | > 30 µM | > 30 µM | > 30 µM | > 30 µM | > 30 µM | > 30 µM | > 30 µM | > 30 µM | > 30 µM | > 30 µM |
| C[C@@H]1C[C@H]2[C@@H]3CCC4=CC(=O)C=C[C@]4(C)[C@@]3(Cl)[C@@H](O)C[C@]2(C)[C@@]1(OC(=O)c1ccco1)C(=O)CCl [MOMETASONE FUROATE] | > 30 µM | > 30 µM | 2.4 µM | > 30 µM | > 30 µM | 13.7 µM | > 30 µM | > 30 µM | > 30 µM | > 30 µM | > 30 µM | > 30 µM | > 30 µM | > 30 µM | > 30 µM | > 30 µM |
